We go through two compounds from US3960667A, “Antibiotic A23187 and process for preparation thereof” (priority 1975, dated 1976).

Data set [1] can be described thus: Acute toxicity in mice. The settings on record: mouse, in vivo, ip, administered intraperitoneally. As for the experimental part: The acute toxicity of antibiotic A23187 in mice, expressed as LD50, is about 10 mg/kg of body weight when the antibiotic is administered intraperitoneally.
A short description of data set [2]: Solubility. Type of data set: physicochemical.
The test system of data set [3] is Penicillium expansum. Description: Antibiotic activity, agar dilution. Type of data set: cell-based. The settings on record: agar dilution (ad), read-out: Minimum inhibitory concentration. The text has this: (§1) The novel antibiotic of this invention has an inhibitory action against the growth of microbial organisms, both bacteria and fungi, which are pathogenic to animal and plant life and is therefore useful in suppressing the growth of such organisms. The antibiotic A23187 is useful in wash solutions for sanitation purposes, as in the cleaning of equipment, floors or furnishings of contaminated rooms or laboratories. For such purposes, the antibiotic, or a salt thereof, is conveniently formulated as a solution in one of the lower chlorinated hydrocarbons, as for example, chloroform. […] The preparation of such formulations is readily accomplished by methods known in the art. The antibiotic can be employed in a wide range of concentrations. Because of its relatively high activity, concentratons of 100 to 500 parts per million are generally adequate for most purposes. The letters bd refer to broth dilution and the letters ad refer to agar dilution.

In data set [4] the test system is Mycobacterium avium. Description: Antibiotic activity, agar dilution. The data set is classed as cell-based. The settings on record: agar dilution (ad), read-out: Minimum inhibitory concentration.
Text: as §1

The test system of data set [5] is Leuconostoc citrovorum. Description: Antibiotic activity, agar dilution. The data set is classed as cell-based. The settings on record: agar dilution (ad), read-out: Minimum inhibitory concentration.
Text: as §1

Data set [6] concerns Helminthosporium sativum. Description: Antibiotic activity, agar dilution. The data set is classed as cell-based. The settings on record: agar dilution (ad), read-out: Minimum inhibitory concentration.
Text: as §1

The test system of data set [7] is Lactobacillus casei. Kind of data set: Antibiotic activity, agar dilution. The data set is classed as cell-based. The settings on record: Lacticaseibacillus casei, agar dilution (ad), read-out: Minimum inhibitory concentration.
Text: as §1

Data set [8] relates to Pullularia sp. Description: Antibiotic activity, agar dilution. The data set is classed as cell-based. The settings on record: agar dilution (ad), read-out: Minimum inhibitory concentration.
Text: as §1

In data set [9] the test system is Candida albicans. Kind of data set: Antibiotic activity, agar dilution. Type of data set: cell-based. The settings on record: agar dilution (ad), read-out: Minimum inhibitory concentration.
Text: as §1

The test system of data set [10] is Trichophyton mentagrophytes. Kind of data set: Antibiotic activity, agar dilution. Type of data set: cell-based. The settings on record: agar dilution (ad), read-out: Minimum inhibitory concentration.
Text: as §1

Data set [11] relates to Colletotrichum pisi. Description: Antibiotic activity, agar dilution. Type of data set: cell-based. The settings on record: agar dilution (ad), read-out: Minimum inhibitory concentration.
Text: as §1

The test system of data set [12] is Glomerella cingulata. Kind of data set: Antibiotic activity, agar dilution. The data set is classed as cell-based. The settings on record: Colletotrichum gloeosporioides, agar dilution (ad), read-out: Minimum inhibitory concentration.
Text: as §1

The subject of data set [13] is Ceratostomella ulmi. Kind of data set: Antibiotic activity, agar dilution. The data set is classed as cell-based. The settings on record: Ophiostoma ulmi, agar dilution (ad), read-out: Minimum inhibitory concentration.
Text: as §1

Data set [14] has as its system Cladosporium resinae. Kind of data set: Antibiotic activity, agar dilution. The data set is classed as cell-based. The settings on record: Amorphotheca resinae, agar dilution (ad), read-out: Minimum inhibitory concentration.
Text: as §1

Data set [15] concerns Saccharomyces pastorianus. Kind of data set: Antibiotic activity, agar dilution. The data set is classed as cell-based. The settings on record: agar dilution (ad), read-out: Minimum inhibitory concentration.
Text: as §1

The subject of data set [16] is Botrytis cinerea. Kind of data set: Antibiotic activity, agar dilution. The data set is classed as cell-based. The settings on record: agar dilution (ad), read-out: Minimum inhibitory concentration.
Text: as §1

Data set [17] relates to Bacillus subtilis. Description: Antibiotic activity, agar dilution. The data set is classed as cell-based. The settings on record: agar dilution (ad), read-out: Minimum inhibitory concentration.
Text: as §1

Data set [18] in a line: Affinity for divalent cations (complex formation). Type of data set: binding. The text has this:
Another characteristic feature of A23187 is its ability to form complexes with certain divalent cations. In experiments to determine the affinity of A23187 for such cations, the following order of reactivity is seen: […]

For data set [19], the system named is Pasteurella multocida. Kind of data set: Antibiotic activity, broth dilution. Type of data set: cell-based. The settings on record: broth dilution (bd), read-out: Minimum inhibitory concentration.
Text: as §1

The test system of data set [20] is Mycoplasma gallisepticum. Kind of data set: Antibiotic activity, broth dilution. The settings on record: Mycoplasmoides gallisepticum, broth dilution (bd), read-out: Minimum inhibitory concentration. Type of data set: cell-based.
Text: as §1

Data set [21] concerns Staphylococcus aureus 3055. Description: Antibiotic activity, broth dilution. The data set is classed as cell-based. The settings on record: broth dilution (bd), read-out: Minimum inhibitory concentration.
Text: as §1

Data set [22] relates to Erysipelas insidiosa. Description: Antibiotic activity, broth dilution. The data set is classed as cell-based. The settings on record: broth dilution (bd), read-out: Minimum inhibitory concentration.
Text: as §1

Data set [23] deals with Pasteurella hemolytica. Kind of data set: Antibiotic activity, broth dilution. Type of data set: cell-based. The settings on record: broth dilution (bd), read-out: Minimum inhibitory concentration.
Text: as §1

Data set [24] concerns Streptococcus faecalis 80. Kind of data set: Antibiotic activity, broth dilution. Type of data set: cell-based. The settings on record: Enterococcus faecalis, broth dilution (bd), read-out: Minimum inhibitory concentration.
Text: as §1

Data set [25] deals with Staphylococcus aureus 1130. Kind of data set: Antibiotic activity, broth dilution. Type of data set: cell-based. The settings on record: broth dilution (bd), read-out: Minimum inhibitory concentration.
Text: as §1

Data set [26] is described as follows: Electrometric titration. The data set is classed as physicochemical. The settings on record: 90% dimethylsulfoxide; electrometric titration in 90 percent dimethylsulfoxide. As for the experimental part: The molecular weight, calculated from titration data, is approximately 550. A23187 is optically active, having a specific rotation, [α]D^25, of […], at a concentration of 1% in chloroform.

Each structure is given as a SMILES string. Converted amounts (≈) assume the structure as drawn. Where a name gives a salt, the structure may show the parent alone.

Compound `CNc1ccc2oc(C[C@H]3O[C@@]4(CC[C@H]3C)O[C@H]([C@H](C)C(=O)c3ccc[nH]3)[C@H](C)C[C@H]4C)nc2c1C(=O)O` [Antibiotic A23187] displayed a 50% lethal dose (LD50) in data set [1] of around 10 mg/kg. Further, the solubility in water result in data set [2] was “relatively insoluble in water”. The MIC stood at 6.25 µg/mL (≈ 11.9 µM) in data set [3]; 0.4 µg/mL (≈ 0.764 µM) in data set [4]; 0.2 µg/mL (≈ 0.382 µM) in [5]; 25 µg/mL (≈ 47.7 µM) in data set [6]; 0.78 µg/mL (≈ 1.49 µM) in data set [7]; 1.56 µg/mL (≈ 2.98 µM) in data set [8]. The MIC in data set [9] amounted to 25 µg/mL (≈ 47.7 µM); in [10], 0.78 µg/mL (≈ 1.49 µM); in data set [11], 6.25 µg/mL (≈ 11.9 µM); in data set [12] it was 100 µg/mL (≈ 191 µM); in [13] it was 6.25 µg/mL (≈ 11.9 µM); in data set [14] it was 6.25 µg/mL (≈ 11.9 µM). The MIC in data set [15] is 1.56 µg/mL (≈ 2.98 µM); in [16] it was 1.56 µg/mL (≈ 2.98 µM); in data set [17] it was 0.2 µg/mL (≈ 0.382 µM); in data set [19], 0.39 µg/mL (≈ 0.745 µM); in data set [20], 1.56 µg/mL (≈ 2.98 µM); in [21], 0.78 µg/mL (≈ 1.49 µM). The MIC in data set [22] was below 0.048 µg/mL; in [23], 12.5 µg/mL (≈ 23.9 µM); in [24], 0.097 µg/mL (≈ 0.185 µM); in data set [25], 0.048 µg/mL (≈ 0.0917 µM). Also, the “affinity for Be^+^+” value in data set [18] is “moderate affinity”. Also, the “affinity for Cd^+^+” value in data set [18] is on record as “appreciable affinity”. Also, the “affinity for Co^+^+” value in data set [18] was “moderate affinity”. In data set [18], the “affinity for Hg^+^+” value was “no apparent affinity”. Besides, the “affinity for Ni^+^+” value in data set [18] was “moderate affinity”. For the same compound, the “affinity for Zn^+^+” value in data set [18] is listed as “moderate affinity”. Further, the “order of reactivity (affinity) for divalent cations” value in data set [18] (Mn, Ca, Mg, Sr, Ba cations) was “Mn^+^+ >> Ca^+^+ = Mg^+^+ > Sr^+^+ > Ba^+^+”. Moreover, the “ionophorous properties, specificity” value in data set [18] (divalent cations) was “high specificity for divalent cations”.
With `CNc1ccc2oc(CC3OC4(CCC3C)OC(C(C)C(=O)c3ccc[nH]3)C(C)CC4C)nc2c1C(=O)O` (stereo not drawn) [mixed calcium-magnesium salt of A23187], the pKa in data set [26] is 6.9. In [2] (acetone, methylethyl ketone, diethyl ketone and the like), the “solubility in the lower alkyl ketones” value is recorded as “very soluble”. Besides, the “solubility in the lower alcohols” value in data set [2] (methanol, ethanol, isopropanol and the like) was “very slightly soluble”. Besides, in data set [2] (methyl acetate, ethyl acetate, methyl propionate, amyl acetate, methyl butyrate and the like), the “solubility in esters formed with the lower alkyl carboxylic acids and lower alcohols” value is recorded as “very soluble”. In addition, the “solubility in the lower alkyl chlorinated hydrocarbons” value in data set [2] (methylene chloride, chloroform, dichloroethane and the like) is “very soluble”. Moreover, the solubility in hydrocarbons entry in data set [2] (pentane, hexane, heptane and the like) was “insoluble”. Also, the solubility in water entry in [2] is “insoluble”.
